Assay results reported in ChEMBL document CHEMBL4311969, “Polygala tenuifolia-Acori tatarinowii herbal pair as an inspiration for substituted cinnamic α-asaronol esters: Design, synthesis, anticonvulsant activity, and inhibition of lactate dehydrogenase study” (Eur J Med Chem, 2019).
“And” between values parts separate entries of the source, which are not always exact repeats. Identical values can stand only once. The source made the active and inactive calls. No cut-off for these calls is given here.

What was measured:
[1] = Half life in Sprague-Dawley rat at 20 mg/kg, po measured upto 480 mins by LC-MS/MS analysis; format: ADME, organism-based; conditions: in vivo
Mus musculus [2] = assay: Anticonvulsant activity in Kunming mouse assessed as reduction in Sc3-MP-induced seizure at 300 mg/kg, ip administered 0.25 and 1 hrs before Sc3-MP stimulation relative to control; format: functional, organism-based
Homo sapiens [3] = species on record: Homo sapiens; assay: Inhibition of human LDH5 at 0.5 mM using sodium pyruvate as substrate measured for 60 sec for every 5 mins by LC/MS-MS analysis
Mus musculus [4] = assay: Anticonvulsant activity in Kunming mouse assessed as reduction in ScPTZ-induced seizure at 100 mg/kg, ip administered 0.25 and 1 hrs before ScPTZ stimulation relative to control; format: functional; design: scale not given: the % may be the effect or the level left
[5] = Tmax in Sprague-Dawley rat at 100 mg/kg, po measured upto 480 mins by LC-MS/MS analysis; format: ADME, organism-based; conditions: in vivo
[6] = (§1) Protective index, ratio of TD50 for neurotoxicity against ip dosed Kunming mouse assessed as time remained in rod measured at 0.5 hrs by rotarod test to ED50 for anticonvulsant activity in ip dosed Kunming mouse assessed as reduction in Sc3-MP-induced seizure administered 0.5 hrs before Sc3-MP stimulation; format: toxicity, organism-based; conditions: in vivo, read-out: PI
[7] = AUC in Sprague-Dawley rat at 50 mg/kg, po measured upto 480 mins by LC-MS/MS analysis; format: ADME, organism-based; design: time < 8 hr, dose 50 mg/kg, route oral; conditions: in vivo
[8] = Clearance in Sprague-Dawley rat at 50 mg/kg, po measured upto 480 mins by LC-MS/MS analysis; format: ADME, organism-based; conditions: in vivo
[9] = Volume of distribution at steady state in Sprague-Dawley rat at 50 mg/kg, po measured upto 480 mins by LC-MS/MS analysis; format: ADME, organism-based; conditions: in vivo, 8 h
[10] = Half life in Sprague-Dawley rat at 20 mg/kg, iv measured upto 480 mins by LC-MS/MS analysis; format: ADME, organism-based; conditions: in vivo
[11] = Clearance in Sprague-Dawley rat at 100 mg/kg, po measured upto 480 mins by LC-MS/MS analysis; format: ADME, organism-based; conditions: in vivo
Mus musculus [12] = assay: Anticonvulsant activity in Kunming mouse assessed as reduction in Sc3-MP-induced tonic seizure rate at 300 mg/kg, ip administered 0.5 hrs before Sc3-MP stimulation relative to control; format: functional; design: scale not given: the % may be the effect or the level left
[13] = as §1, with “ScPTZ-induced” for “Sc3-MP-induced”, “ScPTZ” for “Sc3-MP”; format: toxicity, organism-based; conditions: in vivo, read-out: PI
[14] = Oral bioavailability in Sprague-Dawley rat at 100 mg/kg measured upto 480 mins by LC-MS/MS analysis; format: ADME, organism-based; conditions: in vivo
Mus musculus [15] = assay: Anticonvulsant activity in Kunming mouse assessed as reduction in Sc3-MP-induced seizure at 300 mg/kg, ip administered 0.5 hrs before Sc3-MP stimulation relative to control; format: functional; design: scale not given: the % may be the effect or the level left
[16] = Clearance in Sprague-Dawley rat at 20 mg/kg, po measured upto 480 mins by LC-MS/MS analysis; format: ADME, organism-based; conditions: in vivo
[17] = Neurotoxicity against Kunming mouse assessed as time remained in rod at 100 mg/kg, ip administered 0.5 to 2 hrs by rotarod test; format: toxicity, organism-based; conditions: in vivo
Mus musculus [18] = assay: Anticonvulsant activity in Kunming mouse assessed as MES-induced hind limb extension at 100 mg/kg, ip administered 0. 5 to 2 hrs before MES stimulation; format: functional, organism-based
Homo sapiens [19] = species on record: Homo sapiens; assay: Inhibition of human LDH1 at 0.5 mM using sodium pyruvate as substrate measured for 60 sec for every 5 mins by LC/MS-MS analysis
Mus musculus [20] = assay: Anticonvulsant activity in Kunming mouse assessed as reduction in Sc3-MP-induced seizure ip dosed measured at 0.5 hrs before Sc3-MP stimulation; format: functional
[21] = Volume of distribution at steady state in Sprague-Dawley rat at 20 mg/kg, po measured upto 480 mins by LC-MS/MS analysis; format: ADME, organism-based; conditions: in vivo, 8 h
[22] = AUC in Sprague-Dawley rat at 100 mg/kg, po measured upto 480 mins by LC-MS/MS analysis; format: ADME, organism-based; design: dose 100 mg/kg, time < 8 hr, route oral; conditions: in vivo
[23] = Tmax in Sprague-Dawley rat at 20 mg/kg, po measured upto 480 mins by LC-MS/MS analysis; format: ADME, organism-based; conditions: in vivo
Mus musculus [24] = assay: Anticonvulsant activity in Kunming mouse assessed as MES-induced hind limb extension at 50 mg/kg, ip administered 0.5 and 2 hrs before MES stimulation relative to control; format: functional
[25] = AUC in Sprague-Dawley rat at 20 mg/kg, po measured upto 480 mins by LC-MS/MS analysis; format: ADME, organism-based; design: time < 8 hr, dose 20 mg/kg, route oral; conditions: in vivo
[26] = Clearance in Sprague-Dawley rat at 20 mg/kg, iv measured upto 480 mins by LC-MS/MS analysis; format: ADME, organism-based; conditions: in vivo
[27] = Oral bioavailability in Sprague-Dawley rat at 20 mg/kg measured upto 480 mins by LC-MS/MS analysis; format: ADME, organism-based; conditions: in vivo
Homo sapiens [28] = species on record: Homo sapiens; assay: Inhibition of human LDH1 at 0.5 mM using sodium pyruvate as substrate by UV-VIS spectrophotometry method relative to control
Mus musculus [29] = assay: Anticonvulsant activity in Kunming mouse assessed as MES-induced hind limb extension at 50 mg/kg, ip administered 0.5 to 4 hrs before MES stimulation relative to control; format: functional
[30] = Half life in Sprague-Dawley rat at 50 mg/kg, po measured upto 480 mins by LC-MS/MS analysis; format: ADME, organism-based; conditions: in vivo
[31] = Cmax in Sprague-Dawley rat at 100 mg/kg, po measured upto 480 mins by LC-MS/MS analysis; format: ADME, organism-based; design: dose 100 mg/kg, route oral; conditions: in vivo
Mus musculus [32] = assay: Anticonvulsant activity in Kunming mouse assessed as reduction in Sc3-MP-induced clonic seizure rate at 300 mg/kg, ip administered 0.5 hrs before Sc3-MP stimulation relative to control; format: functional; design: scale not given: the % may be the effect or the level left
[33] = Cmax in Sprague-Dawley rat at 50 mg/kg, po measured upto 480 mins by LC-MS/MS analysis; format: ADME, organism-based; design: dose 50 mg/kg, route oral; conditions: in vivo
Mus musculus [34] = assay: Anticonvulsant activity in Kunming mouse assessed as reduction in ScPTZ-induced tonic seizure rate at 300 mg/kg, ip administered 0.5 hrs before ScPTZ stimulation relative to control; format: functional; design: scale not given: the % may be the effect or the level left
Homo sapiens [35] = species on record: Homo sapiens; assay: Inhibition of human LDH5 at 0.5 mM using sodium pyruvate as substrate by UV-VIS spectrophotometry method relative to control
Mus musculus [36] = assay: Anticonvulsant activity in Kunming mouse assessed as reduction in ScPTZ-induced seizure at 300 mg/kg, ip administered 0.25 to 2 hrs before ScPTZ stimulation relative to control; format: functional; design: scale not given: the % may be the effect or the level left
[37] = Cmax in Sprague-Dawley rat at 20 mg/kg, po measured upto 480 mins by LC-MS/MS analysis; format: ADME, organism-based; design: dose 20 mg/kg, route oral; conditions: in vivo
[38] = Tmax in Sprague-Dawley rat at 50 mg/kg, po measured upto 480 mins by LC-MS/MS analysis; format: ADME, organism-based; conditions: in vivo
Mus musculus [39] = assay: Anticonvulsant activity in Kunming mouse assessed as reduction in ScPTZ-induced seizure at 100 mg/kg, ip administered 0.25 to 2 hrs before ScPTZ stimulation relative to control; format: functional; design: scale not given: the % may be the effect or the level left
Mus musculus [40] = assay: Anticonvulsant activity in ip dosed Kunming mouse assessed as reduction in ScPTZ-induced seizure administered 0.5 hrs before ScPTZ stimulation; format: functional
Mus musculus [41] = assay: Anticonvulsant activity in Kunming mouse assessed as MES-induced hind limb extension at 100 mg/kg, ip administered 0. 5 to 4 hrs before MES stimulation relative to control; format: functional

COc1cc(OC)c(OC)cc1/C=C/COC(=O)/C=C/c1cc(OC)c(OC)c(OC)c1OC
half-life [1]: 55.8 min | Activity (Mus musculus [2]): Active | inhibition (Homo sapiens [3]): 15% | Activity (Mus musculus [4]): 75% | Tmax [5]: 36.2 min | selectivity ratio at 0.5 h [6]: > 5.3 | AUC at 8 h [7]: 2310 ng·h/mL | CL/F [8]: 480 mL/min/kg | Vdss [9]: 9.26 L/kg | half-life [10]: 19.7 min | CL/F [11]: 560 mL/min/kg | Activity (Mus musculus [12]): 50% | selectivity ratio at 0.5 h [13]: > 6.4 | bioavailability [14]: 34.8% | Activity (Mus musculus [15]): 50% | CL/F [16]: 390 mL/min/kg | Activity [17]: Non-Toxic | Activity (Mus musculus [18]): Active | inhibition (Homo sapiens [19]): 18% | ED50 (Mus musculus [20]): > 200 mg/kg and > 422 µmol/kg | Vdss [21]: 8.94 L/kg | AUC at 8 h [22]: 5110 ng·h/mL | Tmax [23]: 35.2 min | Activity (Mus musculus [24]): 75% | AUC at 8 h [25]: 1210 ng·h/mL | clearance [26]: 160 mL/min/kg | bioavailability [27]: 41.3% | inhibition (Homo sapiens [28]): 18% | Activity (Mus musculus [29]): 50% | half-life [30]: 58.5 min | Cmax [31]: 3770 ng/mL | Activity (Mus musculus [32]): 100% | Cmax [33]: 1890 ng/mL | Activity (Mus musculus [34]): 0% | inhibition (Homo sapiens [35]): 15% | Activity (Mus musculus [36]): 50% | Cmax [37]: 880 ng/mL | Tmax [38]: 35.6 min | Activity (Mus musculus [39]): 25% | ED50 (Mus musculus [40]): 155 mg/kg and 327 µmol/kg | Activity (Mus musculus [41]): 25 - 100%

COc1cc(OC)c(OC)cc1/C=C/COC(=O)/C=C/c1c(OC)cc(OC)c(OC)c1OC
half-life [1]: 57.9 min | Activity (Mus musculus [2]): Active | inhibition (Homo sapiens [3]): 27% | Activity (Mus musculus [4]): 75% | Tmax [5]: 38.8 min | selectivity ratio at 0.5 h [6]: 4.6 | AUC at 8 h [7]: 2610 ng·h/mL | CL/F [8]: 450 mL/min/kg | Vdss [9]: 10.17 L/kg | half-life [10]: 22.8 min | CL/F [11]: 520 mL/min/kg | Activity (Mus musculus [12]): 50% | selectivity ratio at 0.5 h [13]: 6.1 | bioavailability [14]: 36.5% | Activity (Mus musculus [15]): 50% | CL/F [16]: 380 mL/min/kg | Activity [17]: Non-Toxic | Activity (Mus musculus [18]): Active | inhibition (Homo sapiens [19]): 21% | ED50 (Mus musculus [20]): 203 mg/kg and 428 µmol/kg | Vdss [21]: 9.86 L/kg | AUC at 8 h [22]: 5480 ng·h/mL | Tmax [23]: 37.1 min | Activity (Mus musculus [24]): 75% | AUC at 8 h [25]: 1300 ng·h/mL | clearance [26]: 140 mL/min/kg | bioavailability [27]: 43.4% | inhibition (Homo sapiens [28]): 21% | Activity (Mus musculus [29]): 50% | half-life [30]: 59.2 min | Cmax [31]: 3980 ng/mL | Activity (Mus musculus [32]): 100% | Cmax [33]: 2040 ng/mL | Activity (Mus musculus [34]): 25% | inhibition (Homo sapiens [35]): 27% | Activity (Mus musculus [36]): 50% | Cmax [37]: 980 ng/mL | Tmax [38]: 38.7 min | Activity (Mus musculus [39]): 25% | ED50 (Mus musculus [40]): 154 mg/kg and 326 µmol/kg | Activity (Mus musculus [41]): 25 - 100%
